# Entries after “also recorded” stand apart in the source; their conditions may differ. Counter-ions that a name gives are not always drawn.
# What was measured:
# [1] = tested on: macaque respiratory tissues; assay: Bronchoscopic administration of plasmid +/- ATA to macaque lung, luciferase assay and histology; format: in vivo; conditions: 48 hours after treatment, H&E
# Procedure: Extending the experiment from murine to nonhuman primate respiratory tissues, the activity of ‘free’ plasmid DNA +/− ATA in macaque respiratory tissues using male rhesus macaques was tested. Initially, the lavage fluid is tested for DNAse activity +/− ATA by incubation with plasmid after which gel electrophoresis is performed as described above with murine lung lavage samples. After a 70 day quarantine, the animals are treated using three general techniques. For direct administration of […] to pulmonary parenchyma, macaques are anesthetized (ketamine, veterinarian assisted) and a pediatric bronchoscope will be passed per nasum with direct visualization of the bronchial tree. Typically, plasmid preparations (3 ml/Kg macaque weight) or related treatments (plasmid/ATA mixtures etc.) are instilled directly via the bronchoscope into the right lower lobe. The left upper lobe of the same macaque is used as an internal control. […]
# As described above, relative luciferase activity is determined using the Enhanced Luciferase Assay Kit and a Monolight 2010 luminometer (both from Analytical Luminescence Laboratories, San Diego, Calif.). […] Luciferase light emissions from 31 microliters of the lysate are measured over a 10 second period, and results are expressed as a function of total protein, total tissue mass, and total DNA dose.
# [2] = tested on: Macaque Skin; assay: Intradermal injection of luciferase DNA into macaque skin +/- ATA; format: in vivo; conditions: 100 μg plasmid and 50 μg ATA intradermal versus plasmid alone
# Procedure: To further confirm the utility of nuclease inhibitors in combination with direct DNA delivery, the activity of free plasmid DNA +/− ATA in skin tissues was tested. The plasmid and animal protocols were identical to those described above. Intradermal injections were performed by injecting 100 μl solutions using 30 gauge needle.
# The experiment was further extended from murine to primate, testing direct intradermal injection on macaques. The control solution was identical to that described for the mice and rat protocols. The test solution contained 100 μg of pND21ux plasmid and 50 μg of ATA in 100 μl water. Ten macaques were included in the control group and twelve were included in the test group.
# [3] = Toxicity of intratracheal ATA/plasmid in mice (lethality, health assessment, lung histology); format: in vivo, mouse; conditions: for mice died: within 8 to 24 hours, pilot experiments
# Procedure: Dose-response experiments can be used to efficacy, toxicity, and effective dose of a particular enhancing agent or polynucleotide preparation. […] Histologic evaluation of treated lung tissue was subsequently performed. […] ATA is often employed for inhibition of cultured cell apoptosis, but relatively few publications describe in vivo applications. In vivo dosing employed in published reports ranges from 4 micrograms administered to the […] cerebral ventricle of gerbils to 10 mg/kg/hour continuous infusion in a hamster carotid stenosis model Based on this literature, a dose range from 0.1 mg/kg to 8 mg/kg ATA administered with 100 micrograms of plasmid was tested. […] Subsequent histologic examination was performed using lung tissue obtained from mice treated with up to 5 mg/kg ATA.
# To obtain information about toxicity, mouse lung tissue was treated with ATA +/− plasmid and routine histologic analyses were performed. […] Therefore, intratracheal instillation of plasmid +/− ATA was performed, and two days later the treated tissues were histologically analyzed after inflation and fixation in formalin followed by routine hematoxylin and eosin staining in paraffin sections. Treatment groups included untreated controls, 100 μl of water for injection (WFI), 100 μg of pND2Lux diluted in WFI, and plasmid with […] body mass diluted in WFI. The images shown in FIG. 9 are representative photomicroscopic fields that include both conducting airway and pulmonary parenchyma.
# [4] = tested on: 16HBE14o; assay: Transfection of cultured cells with DNA/DOTAP +/- ATA, luciferase assay; format: cell-based, human; conditions: very highest doses 80 μg/ml, 40 μg/ml, 10 μg/ml
# Procedure: The human respiratory epithelial cell line, 16HBE14o (Dieter Grunert, UCSF) was cultured on flasks coated with fibronectin (Collaborative Research-Bectin Dickinson), vitrogen (Collagen Corp), basal media (Biofluids, Inc.) and bovine serum albumen (Biofluids, Inc.) as previously described [Gruenert, 1990 #7; Cozens, 1994 #8]. Cells were cultured on twenty four well tissue culture plates (Corning) coated with the above mixture. Culture media was Eagle's modified essential medium (EM) supplemented with 10% fetal bovine serum. 16HBE 14o cells were plated at a density of 5×10^4 cells/ml 24 hours prior to transfection and cells were transfected as subconfluent monolayer. […]
# (§1) Relative luciferase activity was determined using the Enhanced Luciferase Assay Kit and Monolight 2010 luminometer (Analytical Luminescence Laboratories, San Diego, Calif.). […] For In vitro experiments, luciferase light emissions from 20 μl of the cell lysate were measured over a 10 second period, and results expressed as a function of the total lysate volume. For in vivo experiments, luciferase light emissions from […] of the lysate were measured over a 10 second period, and results expressed as a function of the total lysate volume.
# [5] = tested on: mouse lung; assay: Intratracheal plasmid transfection of mouse lung, luciferase reporter assay of lung homogenate; format: in vivo; conditions: for Level of reporter protein expression after intratracheal administration of plasmid, enhancement by co-administration: intratracheal plasmid with DNAse inhibitor, mouse lung
# [6] = tested on: NIH3T3; assay: Transfection of cultured cells with DNA/DOTAP +/- ATA, luciferase assay; format: cell-based; conditions: very highest doses 80 μg/ml, 40 μg/ml, 10 μg/ml
# Procedure: NIH3T3 (ATCC CRL 1658) were grown in Dulbecco's Modified Eagle's Medium and 10% calf serum. NIH3T3 were also plated at a density of 5×10^4 cells/ml in 24 well plates 24 hours prior to transfection and cells were transfected as subconfluent monolayer.
# The sequential addition of appropriate amounts of serum-free DMEM, plasmid DNA ([…]), ATA in serum-free DEM and filter sterilized (see below for doses), and DOTAP (DOTAP:DNA formulation of 5 μg: 1 μg) were pippetted into a 2 ml Eppendorf tube to give a total volume of […] and mixed with a vortex mixer. A […] aliquot of the resultant transfection complex was added to each well of the cells above after the cell media had been aspirated off. The cells were incubated for 2 hours at 37° C. At the two hour time point, the mixture was removed and one ml of culture media was added to each well. […]
# as §1
compound,measurement,setting,value
"O=C(O)C1=CC(=C(c2ccc(O)c(C(=O)O)c2)c2ccc(O)c(C(=O)O)c2)C=CC1=O [ATA, aurin tricarboxylic acid]",Histologically apparent acute toxicity,[1],lack of histologically apparent acute toxicity
same,"enhancement of reporter gene expression, test group on average",[2],11 fold
same,lethality due to the ATA,"[3]; 2 mg/kg ATA or lower doses, during the 48 hours after treatment",no lethality
same,mice died,[3]; 6 mg/kg ATA intratracheal with 100 micrograms plasmid,50%
same,mice died,[3]; 8 mg/kg ATA intratracheal with 100 micrograms plasmid,100%
same,pulmonary dose associated with significant mortality,"[3]; intratracheal, mouse",> 2 μg/g body weight
same,Lung histology (H&E) after intratracheal plasmid +/- ATA,"[3]; mouse lung, two days after treatment, plasmid with 0.5 or 6 mg ATA/g body mass",indistinguishable; also recorded: virtually nontoxic to the lung; also recorded: No significant histologic alterations
same,Health assessment of mice after transfection,[3]; up to 48 hours after transfection,healthy with no physical or behavioral side effects observed
same,Toxicity to cells,[4],toxic and killed cells
same,increase over free DNA transfections,[5]; doses of ATA virtually nontoxic to the lung,57%
same,Toxicity to cells,[6],toxic and killed cells
"O=C(O)CN(CCN(CC(=O)O)CC(=O)O)CC(=O)O [EDTA, ethylenediaminetetraacetic acid]","Level of reporter protein expression after intratracheal administration of plasmid, enhancement by co-administration",[5],Neither EDTA nor citrate significantly enhanced the level of expression
O=C(O)CC(O)(CC(=O)O)C(=O)O [sodium citrate],"Level of reporter protein expression after intratracheal administration of plasmid, enhancement by co-administration",[5]; listed as citrate,Neither EDTA nor citrate significantly enhanced the level of expression

# Source: patent US20040009947A1, “Compounds and methods for enhancing delivery of free polynucleotide” (priority 1998, published 2004)
